According to ChEMBL document CHEMBL1201862, “PubChem BioAssay data set” (2004):
Calls of active or inactive are those of the source. Rule as the data show it, for most assays here: actives have a measured EC50 and inactives only a lower limit.

Columns and labels:
[1] = blockers of HIV-1 ZM109 envelope-driven cell-cell fusion – HeLa effector, CEM target cells, luciferase, cherry-pick, dose response (AID 652058); type: functional, cell-based;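 also: luciferase signal from HIV-1 Env mediated cell-cell fusion of effector and target cells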
[2] = HIV-1 AD8 envelope cell-cell fusion blockers – cherry-pick, dose response (AID 652062); type: functional, cell-based;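 also: luciferase signal from cell-cell fusion driven by HIV-1 clade B AD8 Env; potency is for inhibitors of fusion seen as a drop in luminescence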
[3] = molecular target: T1, Corticotropin-releasing factor receptor 2/Corticotropin-releasing factor-binding protein (Homo sapiens, UniProt P24387+Q13324); test: activators of CRF receptor 2 with binding protein – uHTS hits, confirmation (AID 602473); type: functional; settings: read-out: EC50_Mean
T1 sequence (Q13324 whole entry): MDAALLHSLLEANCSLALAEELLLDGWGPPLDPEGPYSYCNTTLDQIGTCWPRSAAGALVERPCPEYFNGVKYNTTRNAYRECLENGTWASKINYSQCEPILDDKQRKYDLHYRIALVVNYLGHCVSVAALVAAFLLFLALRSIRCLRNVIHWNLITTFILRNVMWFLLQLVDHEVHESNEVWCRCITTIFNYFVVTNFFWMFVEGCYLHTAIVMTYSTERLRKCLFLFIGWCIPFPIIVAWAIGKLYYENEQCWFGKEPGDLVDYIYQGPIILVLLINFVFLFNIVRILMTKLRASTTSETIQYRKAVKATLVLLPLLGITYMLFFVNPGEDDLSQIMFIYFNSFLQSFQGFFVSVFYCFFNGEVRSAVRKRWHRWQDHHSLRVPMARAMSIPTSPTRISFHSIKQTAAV
T1 sequence (P24387 whole entry): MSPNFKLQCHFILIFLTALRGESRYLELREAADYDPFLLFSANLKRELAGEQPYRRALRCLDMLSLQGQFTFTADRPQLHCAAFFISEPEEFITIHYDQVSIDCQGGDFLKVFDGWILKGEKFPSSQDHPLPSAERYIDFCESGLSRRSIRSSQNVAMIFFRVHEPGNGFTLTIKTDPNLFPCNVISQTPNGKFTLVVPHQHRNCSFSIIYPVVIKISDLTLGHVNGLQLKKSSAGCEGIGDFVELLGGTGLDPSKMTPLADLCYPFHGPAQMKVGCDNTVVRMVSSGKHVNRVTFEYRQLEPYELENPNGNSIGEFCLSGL

[4] = molecular target: T2, Zinc finger protein mex-5 (Caenorhabditis elegans, UniProt Q9XUB2); test: potency of MEX-5 RNA-binding blockers – biochemical, C. elegans, fluorescence polarization, dose response (AID 1960)
T2 sequence (Q9XUB2 whole entry): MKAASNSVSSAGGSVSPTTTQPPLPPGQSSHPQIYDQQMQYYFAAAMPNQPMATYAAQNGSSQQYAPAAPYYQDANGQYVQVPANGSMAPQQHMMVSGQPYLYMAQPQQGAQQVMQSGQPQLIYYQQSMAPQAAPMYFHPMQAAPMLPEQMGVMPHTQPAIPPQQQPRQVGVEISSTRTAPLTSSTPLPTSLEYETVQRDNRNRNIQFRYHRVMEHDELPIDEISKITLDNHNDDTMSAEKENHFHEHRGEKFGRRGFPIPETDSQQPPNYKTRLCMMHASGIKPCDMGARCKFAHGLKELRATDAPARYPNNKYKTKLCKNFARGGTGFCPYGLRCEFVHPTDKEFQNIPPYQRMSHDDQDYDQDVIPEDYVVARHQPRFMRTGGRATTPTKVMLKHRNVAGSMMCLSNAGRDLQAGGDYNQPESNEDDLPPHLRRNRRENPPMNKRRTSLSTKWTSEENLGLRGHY

[5] = molecular target: T3, RNA-binding protein pos-1 (Caenorhabditis elegans, UniProt G5EF15); test: disruptors of C. elegans POS-1 RNA interaction – biochemical, fluorescence polarization, dose response (AID 1964);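 also: purified POS-1 fused to maltose binding protein made in E. coli; potency of compounds blocking POS-1 binding to fluorescent RNA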
T3 sequence (G5EF15 whole entry): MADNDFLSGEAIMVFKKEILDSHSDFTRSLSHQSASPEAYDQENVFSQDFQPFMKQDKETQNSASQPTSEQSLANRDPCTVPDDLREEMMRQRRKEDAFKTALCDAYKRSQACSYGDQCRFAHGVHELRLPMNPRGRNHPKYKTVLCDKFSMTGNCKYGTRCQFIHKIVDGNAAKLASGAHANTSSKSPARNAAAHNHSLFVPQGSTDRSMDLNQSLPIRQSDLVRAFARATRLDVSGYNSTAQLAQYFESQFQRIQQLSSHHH

[6] = microbe, parasite or virus in culture; type: functional; settings: Mycobacterium tuberculosis
Streptococcus = test: GAS UMAA2166 growth inhibition – luminescence, BacTiterGlo, counter-screen for streptokinase expression inhibitor project, dose response (AID 1915); type: functional, organism-based;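 also: potency for reduction of bacterial viability or growth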
[7] = test system: Streptococcus sp. 'group A'; test: Streptococcus pyogenes SK(-)GAS viability under kanamycin – luminescence, BacTiterGlo, confirmation, counter-screen for streptokinase expression inhibitor project, dose response (AID 1900); type: functional, organism-based
[8] = Trypanosoma cruzi growth suppression in host cells – NIH3T3 host cells, beta-gal luminescence, confirmation (AID 2044); type: functional, cell-based;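 also: intracellular parasites grown in NIH/3T3 mouse fibroblasts as host cells; luminescent beta-galactosidase reporter signal from transgenic T. cruzi replicating inside host cells; inhibitors lower the luminescence signal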
[9] = NIH3T3 cell viability loss – ATP luminescence, mouse fibroblasts, counter-screen, dose response (AID 2010); type: functional, cell-based;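 also: cells exposed to compound for about 90 hours before reading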
Streptokinase A = molecular target: T4, Streptokinase A (Streptococcus pyogenes serotype M1, UniProt P10520); test: viability-normalized secreted streptokinase activity reduction – plasminogen activation absorbance, OD405, dose response (AID 1914); type: functional, Streptococcus pyogenes M1 GAS;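 also: secreted streptokinase activity via plasminogen activation per viability signal from cell pellet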
T4 sequence (P10520 whole entry): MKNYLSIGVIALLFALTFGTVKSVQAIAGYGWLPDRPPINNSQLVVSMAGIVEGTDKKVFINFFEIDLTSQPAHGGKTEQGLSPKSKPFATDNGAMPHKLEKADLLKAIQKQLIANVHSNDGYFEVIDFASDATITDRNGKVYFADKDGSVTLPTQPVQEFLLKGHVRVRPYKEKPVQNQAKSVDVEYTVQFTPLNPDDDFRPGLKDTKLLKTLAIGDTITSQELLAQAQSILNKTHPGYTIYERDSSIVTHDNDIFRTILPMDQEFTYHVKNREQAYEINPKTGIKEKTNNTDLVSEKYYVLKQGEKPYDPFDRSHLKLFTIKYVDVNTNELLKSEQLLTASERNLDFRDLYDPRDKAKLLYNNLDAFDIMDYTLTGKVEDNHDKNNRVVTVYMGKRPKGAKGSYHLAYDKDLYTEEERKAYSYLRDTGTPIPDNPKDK

[10] = molecular target: T5, Ubiquitin-conjugating enzyme E2 N (Homo sapiens, UniProt P61088); type: functional;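 also: Dose-response confirmation in a TR-FRET assay detecting UBC13-driven polyubiquitin chain formation, inhibition measured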
T5 sequence (P61088 whole entry): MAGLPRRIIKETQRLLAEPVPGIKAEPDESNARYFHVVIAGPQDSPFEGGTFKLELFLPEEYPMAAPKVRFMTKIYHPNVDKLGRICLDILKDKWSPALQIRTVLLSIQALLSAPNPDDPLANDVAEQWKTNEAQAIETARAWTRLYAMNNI

[11] = viability of HCT116 lacking mutant beta-catenin – cell-based, human colon tumor, dose response (AID 1045); type: functional;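 also: HCT116 colon tumor cells with beta catenin knocked out; cells exposed to compound for 60 hours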
H4 = test: Luminescence Cell-Based Dose Response HTS to Identify Activators of 5'UTR Stem-Loop Driven Prion Protein mRNA Translation in H4 Neuroglioblastoma Cells. [Related pubchem assays: 1829 (Project Summary), 1814 (Primary HTS)]; type: functional; settings: Homo sapiens
[12] = Luminescence Cell-Based Dose Response HTS to Identify Activators of Luciferase Translation or Activity in H4 […] Cells. [Related pubchem assays: 1829 (Project Summary), 1814 (Primary HTS)]; type: functional
cells = type: functional
[13] = P. falciparum Dd2 growth inhibitors, dose response, SYBR Green, cherry-picked samples (AID 1159567); type: functional, cell-based

**Q.** With `COC(=O)C1CCN(C(=O)COC(=O)c2cc(S(=O)(=O)N3CCOCC3)ccc2C)CC1` as the molecule, how does the AC50 [1] read?
**A.** The AC50 was 17.5 µM (active).

**Q.** What about the AC50 [2] of the same molecule?
**A.** The AC50 was 45.6 µM (active).

**Q.** For `Cc1cc(N2CCOCC2)nc(NCc2ccccc2)n1`, which EC50 [3] is on record?
**A.** The EC50 was 5.68 µM (active).

**Q.** Which results are given for `O=C1Nc2cc(Cl)cnc2N2CCCC12` (stereo not given)?
**A.** EC50 [4]: 12.5 µM (active); EC50 [5]: 16.8 µM (active)

**Q.** Which results are given for `Oc1ccc(Br)cc1/C=N/Nc1nc(N2CCCCC2)nc(N2CCOCC2)n1`?
**A.** CC50 [6]: > 40 µM (active); EC50 (Streptococcus): 24.7 µM (active); EC50 [7]: 3.48 µM (active); EC50 [8]: 1.91 µM (active); EC50 [9]: > 60 µM (not active); EC50 (Streptokinase A): 33.6 µM (active)

**Q.** Which EC50 [3] does the source give for `CN(C)c1ccc(/C=C2\C(=N)N3N=C(CC(=O)N4CCCCC4)SC3=NC2=O)cc1` here?
**A.** Its EC50 is 6.36 µM (active).

**Q.** For `C/C(=N\NC(=O)CSCc1ccc([N+](=O)[O-])cc1)c1ccccc1O`, which IC50 [10] is on record?
**A.** The IC50 was > 20 µM (inactive).

**Q.** With `Cc1cc(NC(=O)CSc2nc3c(c(=O)n2-c2ccc(Br)cc2)SCC3)no1` as the molecule, how does the EC50 [11] read?
**A.** Its EC50 is 155 µM (active).

**Q.** What does the source list for `Cc1cccc(-c2nc(C#N)c(NCC3CCCO3)o2)c1` (stereo not given)?
**A.** EC50 (H4): 36 µM (active); EC50 [12]: 1.97 µM (active)

**Q.** For `CC1=CC(C)(C)n2c(O)c(/N=N/C(=N)S)c3cc(C)cc1c32`, which IC50 [10] is on record?
**A.** Its IC50 is > 20 µM (inactive).

**Q.** For `O=C(Nc1ccc(-c2nc3ccccc3c(=O)o2)cc1)c1ccco1`, which IC50 (cells) is on record?
**A.** Its IC50 is 0.84 µM (active).

**Q.** With `Cc1ccccc1S(=O)(=O)N1[C@H](C#N)[C@H](c2ccc(C#CC3CCCC3)cc2)[C@@H]1CO` as the molecule, how does the AC50 [13] read?
**A.** The AC50 was 5.11 µM (active).

**Q.** For `C=C[C@](C)(CC[C@@]1(C)C(C)CC(OC2OC(C)C(OC3OC(COC(C)=O)C(O)C(O)C3O)C(O)C2O)[C@@]2(C)C(C)=CCCC12)OC1OC(C)C(O[C@@H]2O[C@@H](C)C(O)C(O)[C@H]2O)C(O)C1O` (stereo not given in full), which IC50 [10] is on record?
**A.** Its IC50 is > 20 µM (inactive).

**Q.** Which IC50 [10] does the source give for `CCCC(=O)N(CCN1CCOCC1)c1nc2c(C)cccc2s1` here?
**A.** The IC50 was > 20 µM (inactive).

**Q.** For `CCOC(=O)c1sc2nc3n(c(=O)c2c1C)CCCCC3`, which EC50 (H4) is on record?
**A.** The EC50 was 101 µM (active).

**Q.** What about the EC50 [12] of the same molecule?
**A.** The EC50 was 27.9 µM (active).

**Q.** Which IC50 [10] does the source give for `NCCCC[C@@H](C(=O)N1CCNCC1)n1cc(CN)nn1` here?
**A.** The IC50 was > 20 µM (inactive).

**Q.** Which EC50 [3] does the source give for `C=CCC[C@@H](Cc1ccc(F)cc1)C(=O)OC[C@H](Cc1c[nH]c2ccccc12)NC(=O)[C@@H](CC=C)CC(=O)NCCO` here?
**A.** Its EC50 is 11.4 µM (active).
